Experimental data reported in patent publication US11707530B2, “Ligand capable of multivalently binding to glutamine transporter, and composition comprising same” (TOKYO INSTITUTE OF TECHNOLOGY, priority 2016, dated 2023).

Key:
[1] = molecular target: T1, ASCT2 (Homo sapiens, UniProt Q15758); assay: Antibody labeling of Bx-PC3 cells after incubation in Bzl-Ser solution; type: cell-based; parameters: endogenous in cells; host or cells: Bx-PC3 (BxPC-3) pancreatic cancer cells; settings: 50 mM Bzl-Ser
T1 sequence (Q15758 1-541): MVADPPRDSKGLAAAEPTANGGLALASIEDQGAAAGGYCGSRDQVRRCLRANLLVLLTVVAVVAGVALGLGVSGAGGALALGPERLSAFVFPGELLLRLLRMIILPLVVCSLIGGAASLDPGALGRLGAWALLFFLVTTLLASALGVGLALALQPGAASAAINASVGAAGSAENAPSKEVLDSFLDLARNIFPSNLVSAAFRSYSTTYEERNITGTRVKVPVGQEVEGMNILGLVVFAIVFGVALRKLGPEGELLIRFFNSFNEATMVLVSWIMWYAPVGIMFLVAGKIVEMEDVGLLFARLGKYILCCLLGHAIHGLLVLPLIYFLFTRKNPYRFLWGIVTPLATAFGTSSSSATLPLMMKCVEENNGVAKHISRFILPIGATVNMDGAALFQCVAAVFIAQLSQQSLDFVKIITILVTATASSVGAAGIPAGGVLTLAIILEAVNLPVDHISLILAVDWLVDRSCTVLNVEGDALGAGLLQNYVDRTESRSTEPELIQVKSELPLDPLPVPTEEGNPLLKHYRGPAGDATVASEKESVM

[2] = molecular target: T1, ASCT2; settings: background statement; read-out: Km (Michaelis constant, affinity for ASCT2); cited from earlier work

Row | SMILES | antibody labeling, cells incubated in Bzl-Ser solution vs PBS+10% FBS [1] | Km [2] [µM]
1 | N[C@@H](COCc1ccccc1)C(=O)O [Bzl-Ser, O-benzyl-L-serine] | no difference observed | –
2 | NC(=O)CC[C@H](N)C(=O)O [glutamine, L-glutamine] | – | 20
